We go through one substance from patent US12036262B2, “Edible plant-derived nanoparticles for regulation of gut microbiota” (University of Louisville Research Foundation, Inc., priority 2017, dated 2024).

The test system of series [1] is Lactobacillus rhamnosus GG (LGG). The experiment in a line: LGG proliferation in culture (OD600). Format: cell-based. The conditions noted are these: compared with scrambled miRNA. The procedure: Bacteria. Lactobacillus rhamnosus (LGG) was obtained from ATCC® (Catalog No. 53103). The SpaC-deleted LGG was cultured in Lysogeny broth (LB; ISC BioExpress, Kaysville, Utah, United States of America) at 37° C. Ruminococcaceae sp. (ATCC® Catalog No. TSD-27) was grown in GS2+cellobiose medium (Biddle et al., 2013). Listeria monocytogenes (Listeria; ATCC® Catalog No. 15313) and Bacteroides fragilis (Fragilis, NCTC 9343) were cultured in brain heart infusion (BHI) broth (Hardy Diagnostics, Santa Maria, California, United States of America) as described in Zhang & Wang, 2015 and Deng et al., 2015, respectively. LGG was grown in MRS broth media at 37° C. in anaerobic conditions for 14-16 hours to an OD600 of 0.8-1.0. Bacterial viability and concentration were checked by MRS agar platting. Cultures were centrifuged and the bacterial pellet was diluted in MRS for in vitro experiments and in PBS for gavaging at 10^9 CFU/mouse per day.

In another series the test system is LGG. The experiment in a line: Bacterial translocation to peripheral blood and liver. Format: in vivo. The conditions noted are these: DSS-treated SPF and germ-free mice, compared with LGG alone. The procedure: Bacterial Translocation. Bacterial translocation from the murine gut to peripheral blood and liver was determined at the indicated times presented in the relevant figures after oral bacterial administration. Fifty microliters of anticoagulant blood were cultured on MRS agar for 48 h at 37° C. in an anaerobic chamber. Liver tissue samples were homogenized in 0.5% Triton X-100/PBS, and 100 μl of the homogenates were cultured on MRS agar plates. After 48 hours of incubation, CFUs were counted, and the results are expressed as number of bacteria detected/mL of blood or gram of liver.

The test system of a further series is SpaC. The experiment in a line: Immunogold labeling of LGG pili and TEM. Format: cell-based, Lactobacillus rhamnosus. The conditions noted are these: compared with PBS or scrambled miRNA. The procedure: Immunogold Labeling of LGG Pili and TEM. To visualize LGG pili via transmission electron microscopy (TEM), LGG cultures were grown overnight (OD600<1.0) and washed once with PBS. Formvar-carbon-coated copper grids (Electron Microscopy Sciences, Hatfield, Pennsylvania, United States of America) first were floated for 1 hour on droplets of the diluted LGG at 10^7/mL in PBS, washed several times with 0.02 M glycine in PBS, and then treated with a blocking solution of 1% bovine serum albumin (BSA) in PBS. The grids were then floated for 1 hour on droplets of anti-SpaC serum (1:100) in blocking solution. After a wash with 0.1% BSA in PBS, the grids were incubated for 20 minutes with protein A-conjugated 10-nm-diameter gold particles (Cytodiagnostics, Burlington, Ontario, Canada) diluted 1:55 in blocking solution. After one wash in PBS, the grids were fixed with 1% glutaraldehyde, washed with distilled water, and then stained with 1% ammonium molybdate on the surface of the EM grid. After excess ammonium molybdate was removed from the grid, images were visualized using a Thermo-Fisher TEM Tecnai Spirit at 80 kV, and images were collected with an AMT XR60 digital camera.

For the substance “ath-miR167a: GELN miRNA, SEQ ID NO: 9 (UGAAGCUGCCAGCAUGAUCUA; expressed or natural sequence)”, the “growth of SpaC^del LGG” value in series [1] is listed as “no effect”. In the series with LGG, the “LGG migration into bloodstream and liver” value is “significantly reduced LGG translocation into the peripheral blood”. In addition, the “SpaC protein on pili of LGG (TEM)” value with SpaC is given as “much less SpaC protein could be detected on pili”.
